Source: PubChem BioAssay AID1919005 (Molecular Pharmacology Branch, DTP, NCI, 2023)
“And” between values parts separate entries of the source, which are not always exact repeats. Identical values can stand only once.

System: 855422-203-R-J1-PDC complex spheroid growth
Experiment: Anticancer human tumor 855422-203-R-J1-PDC patient-derived bladder carcinoma cell line growth inhibition [AhR]
Details: for viability, T/C: stronger effect = lower value
In short: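 Complex tumor spheroids co-cultured with HUVEC and human MSC stroma; AhR antagonists tested in combination with standard-of-care and investigational agents. Top concentration at or near clinical Cmax (else 10 microM), half-log dilutions; growth expressed as percent test/control.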

[1] = curve of first compound, second compound 0.1 µM
[2] = curve of first compound, second compound 0.316 µM
[3] = curve of first compound, second compound 1 µM
[4] = curve of first compound, second compound 3.16 µM
[5] = curve of first compound, second compound 10 µM
[6] = second compound 0.1 µM, first compound 0.000949 µM
[7] = second compound 0.1 µM, first compound 0.003 µM
[8] = second compound 0.1 µM, first compound 0.00949 µM
[9] = second compound 0.1 µM, first compound 0.03 µM
[10] = second compound 0.1 µM, first compound 0.0949 µM
[11] = second compound 0.1 µM, first compound 0.3 µM
[12] = second compound 0.316 µM, first compound 0.000949 µM
[13] = second compound 0.316 µM, first compound 0.003 µM
[14] = second compound 0.316 µM, first compound 0.00949 µM
[15] = second compound 0.316 µM, first compound 0.03 µM
[16] = second compound 0.316 µM, first compound 0.0949 µM
[17] = second compound 0.316 µM, first compound 0.3 µM
[18] = second compound 1 µM, first compound 0.000949 µM
[19] = second compound 1 µM, first compound 0.003 µM
[20] = second compound 1 µM, first compound 0.00949 µM
[21] = second compound 1 µM, first compound 0.03 µM
[22] = second compound 1 µM, first compound 0.0949 µM
[23] = second compound 1 µM, first compound 0.3 µM
[24] = second compound 3.16 µM, first compound 0.000949 µM
[25] = second compound 3.16 µM, first compound 0.003 µM
[26] = second compound 3.16 µM, first compound 0.00949 µM
[27] = second compound 3.16 µM, first compound 0.03 µM
[28] = second compound 3.16 µM, first compound 0.0949 µM
[29] = second compound 3.16 µM, first compound 0.3 µM
[30] = second compound 10 µM, first compound 0.000949 µM
[31] = second compound 10 µM, first compound 0.003 µM
[32] = second compound 10 µM, first compound 0.00949 µM
[33] = second compound 10 µM, first compound 0.03 µM
[34] = second compound 10 µM, first compound 0.0949 µM
[35] = second compound 10 µM, first compound 0.3 µM
[36] = second compound 0.1 µM, first compound 0.0316 µM
[37] = second compound 0.1 µM, first compound 0.1 µM
[38] = second compound 0.1 µM, first compound 0.316 µM
[39] = second compound 0.1 µM, first compound 1 µM
[40] = second compound 0.1 µM, first compound 3.16 µM
[41] = second compound 0.1 µM, first compound 10 µM
[42] = second compound 0.316 µM, first compound 0.0316 µM
[43] = second compound 0.316 µM, first compound 0.1 µM
[44] = second compound 0.316 µM, first compound 0.316 µM
[45] = second compound 0.316 µM, first compound 1 µM
[46] = second compound 0.316 µM, first compound 3.16 µM
[47] = second compound 0.316 µM, first compound 10 µM
[48] = second compound 1 µM, first compound 0.0316 µM
[49] = second compound 1 µM, first compound 0.1 µM
[50] = second compound 1 µM, first compound 0.316 µM
[51] = second compound 1 µM, first compound 1 µM
[52] = second compound 1 µM, first compound 3.16 µM
[53] = second compound 1 µM, first compound 10 µM
[54] = second compound 3.16 µM, first compound 0.0316 µM
[55] = second compound 3.16 µM, first compound 0.1 µM
[56] = second compound 3.16 µM, first compound 0.316 µM
[57] = second compound 3.16 µM, first compound 1 µM
[58] = second compound 3.16 µM, first compound 3.16 µM
[59] = second compound 3.16 µM, first compound 10 µM
[60] = second compound 10 µM, first compound 0.0316 µM
[61] = second compound 10 µM, first compound 0.1 µM
[62] = second compound 10 µM, first compound 0.316 µM
[63] = second compound 10 µM, first compound 1 µM
[64] = second compound 10 µM, first compound 3.16 µM
[65] = second compound 10 µM, first compound 10 µM
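Note: spheroids exposed to agents for seven days before readout.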
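Throughout, for viability, T/C: percent of DMSO vehicle control luminescence viability.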

CC(C)CC(NC(=O)C(Cc1ccccc1)NC(=O)c1cnccn1)B(O)O (stereo not drawn) + Cc1ccccc1N=Nc1ccc(NC(=O)c2ccnn2C)c(C)c1
IC50 [1]: 0.00594 µM | IC50 [2]: 0.00586 µM | IC50 [3]: 0.00566 µM | IC50 [4]: 0.00519 µM | IC50 [5]: 0.00416 µM | viability, T/C [6]: 108% | viability, T/C [7]: 135% | viability, T/C [8]: 0.86% | viability, T/C [9]: 0.84% | viability, T/C [10]: 1.35% | viability, T/C [11]: 0.12% | viability, T/C [12]: 118% | viability, T/C [13]: 121% | viability, T/C [14]: 0.21% | viability, T/C [15]: 0.02% | viability, T/C [16]: 0.02% | viability, T/C [17]: 0.1% | viability, T/C [18]: 108% | viability, T/C [19]: 115% | viability, T/C [20]: 0.18% | viability, T/C [21]: 0.04% | viability, T/C [22]: 0.02% | viability, T/C [23]: 0.11% | viability, T/C [24]: 100% | viability, T/C [25]: 94.6% | viability, T/C [26]: 0.91% | viability, T/C [27]: 0.03% | viability, T/C [28]: 0.09% | viability, T/C [29]: 0.09% | viability, T/C [30]: 85% | viability, T/C [31]: 69.6% | viability, T/C [32]: 0.28% | viability, T/C [33]: 0.11% | viability, T/C [34]: 0.12% | viability, T/C [35]: 0.16%

COc1cccc2c1C(=O)c1c(O)c3c(c(O)c1C2=O)CC(O)(C(=O)CO)CC3OC1CC(N)C(O)C(C)O1 (stereo not drawn)
viability, T/C (compound 0.0316 µM): 19% and 41.1% and 29.2% | viability, T/C (compound 0.1 µM): 13.1% and 28.8% and 16.9% | viability, T/C (compound 0.316 µM): 3.14% and 7.44% and 4.25% | viability, T/C (compound 1 µM): 0.97% and 2.58% and 1.55% | viability, T/C (compound 3.16 µM): 1.22% and 1.89% and 0.79% | viability, T/C (compound 10 µM): 1.82% and 4.62% and 3.32% | IC50 (curve of compound): < 0.0316 µM

COc1cc(Nc2ncc3c(n2)-c2ccc(Cl)cc2C(c2c(F)cccc2OC)=NC3)ccc1C(=O)O
viability, T/C (compound 0.0316 µM): 102% and 109% and 95.2% | viability, T/C (compound 0.1 µM): 105% and 114% (2×) | viability, T/C (compound 0.316 µM): 60.7% and 90.8% and 66.4% | viability, T/C (compound 1 µM): 55.4% and 89% and 51.6% | viability, T/C (compound 3.16 µM): 47.3% and 82.6% and 48.8% | viability, T/C (compound 10 µM): 45.4% and 68.6% and 47%

NS(=O)(=O)OCC1CC(n2ccc3c(NC4CCc5ccccc54)ncnc32)CC1O (stereo not drawn) + Cc1cncc(-c2nc(NCCc3c[nH]c4ccccc34)c3ncn(C(C)C)c3n2)c1
IC50 [1]: 0.86 µM | IC50 [2]: 0.647 µM | IC50 [3]: 0.499 µM | IC50 [4]: 0.216 µM | IC50 [5]: < 0.0316 µM | viability, T/C [36]: 114% | viability, T/C [37]: 119% | viability, T/C [38]: 78.2% | viability, T/C [39]: 50.4% | viability, T/C [40]: 12.8% | viability, T/C [41]: 10.9% | viability, T/C [42]: 96.5% | viability, T/C [43]: 113% | viability, T/C [44]: 52.1% | viability, T/C [45]: 50.9% | viability, T/C [46]: 10.8% | viability, T/C [47]: 9.91% | viability, T/C [48]: 98.3% | viability, T/C [49]: 106% | viability, T/C [50]: 50.7% | viability, T/C [51]: 40.3% | viability, T/C [52]: 11.7% | viability, T/C [53]: 9.3% | viability, T/C [54]: 80.2% | viability, T/C [55]: 75.9% | viability, T/C [56]: 37.1% | viability, T/C [57]: 12.5% | viability, T/C [58]: 8.33% | viability, T/C [59]: 8.5% | viability, T/C [60]: 9.89% | viability, T/C [61]: 4.7% | viability, T/C [62]: 3.03% | viability, T/C [63]: 0.63% | viability, T/C [64]: 1.67% | viability, T/C [65]: 1.45%

CCc1c2c(nc3ccc(O)cc13)-c1cc3c(c(=O)n1C2)COC(=O)[C@]3(O)CC + Cc1cncc(-c2nc(NCCc3c[nH]c4ccccc34)c3ncn(C(C)C)c3n2)c1
IC50 [1]: 0.0029 µM | IC50 [2]: 0.00198 µM | IC50 [3]: 0.00181 µM | IC50 [4]: 0.00109 µM | IC50 [5]: < 0.000949 µM | viability, T/C [6]: 99.6% | viability, T/C [7]: 48.6% | viability, T/C [8]: 12.1% | viability, T/C [9]: 9.21% | viability, T/C [10]: 6.44% | viability, T/C [11]: 3.75% | viability, T/C [12]: 76.5% | viability, T/C [13]: 35% | viability, T/C [14]: 9.9% | viability, T/C [15]: 10% | viability, T/C [16]: 6.31% | viability, T/C [17]: 4.22% | viability, T/C [18]: 72.3% | viability, T/C [19]: 32.6% | viability, T/C [20]: 11.4% | viability, T/C [21]: 9.74% | viability, T/C [22]: 6.96% | viability, T/C [23]: 4.13% | viability, T/C [24]: 54.2% | viability, T/C [25]: 22.2% | viability, T/C [26]: 10.7% | viability, T/C [27]: 4.55% | viability, T/C [28]: 5.79% | viability, T/C [29]: 3.2% | viability, T/C [30]: 3.26% | viability, T/C [31]: 2.2% | viability, T/C [32]: 3.05% | viability, T/C [33]: 0.55% | viability, T/C [34]: 1.43% | viability, T/C [35]: 1.83%

CC1(C)CCC(CN2CCN(c3ccc(C(=O)NS(=O)(=O)c4ccc(NCC5CCOCC5)c([N+](=O)[O-])c4)c(Oc4cnc5[nH]ccc5c4)c3)CC2)=C(c2ccc(Cl)cc2)C1 + CC(CO)NC(=O)c1cc(-c2ccc(Cl)cc2)nn(-c2cnn(C)c2)c1=O
IC50 [1]: 6.14 µM | IC50 [2]: 6.19 µM | IC50 [3]: 6.3 µM | IC50 [4]: 6.25 µM | IC50 [5]: 5.94 µM | viability, T/C [36]: 104% | viability, T/C [37]: 100% | viability, T/C [38]: 110% | viability, T/C [39]: 97.8% | viability, T/C [40]: 102% | viability, T/C [41]: 11.8% | viability, T/C [42]: 97.3% | viability, T/C [43]: 96.9% | viability, T/C [44]: 109% | viability, T/C [45]: 100% | viability, T/C [46]: 109% | viability, T/C [47]: 12.3% | viability, T/C [48]: 101% | viability, T/C [49]: 103% | viability, T/C [50]: 103% | viability, T/C [51]: 109% | viability, T/C [52]: 106% | viability, T/C [53]: 13.2% | viability, T/C [54]: 104% | viability, T/C [55]: 111% | viability, T/C [56]: 108% | viability, T/C [57]: 103% | viability, T/C [58]: 105% | viability, T/C [59]: 12.3% | viability, T/C [60]: 94.8% | viability, T/C [61]: 104% | viability, T/C [62]: 88.3% | viability, T/C [63]: 101% | viability, T/C [64]: 93.9% | viability, T/C [65]: 13.7%

CC(C)c1c(-c2ccccc2)nc2c(C#N)c[nH]n2c1=O + Cc1cncc(-c2nc(NCCc3c[nH]c4ccccc34)c3ncn(C(C)C)c3n2)c1
IC50 [1]: > 10 µM | IC50 [2]: > 10 µM | IC50 [3]: > 10 µM | IC50 [4]: > 10 µM | IC50 [5]: < 0.0316 µM | viability, T/C [36]: 112% | viability, T/C [37]: 91.1% | viability, T/C [38]: 104% | viability, T/C [39]: 95.9% | viability, T/C [40]: 94.2% | viability, T/C [41]: 78.8% | viability, T/C [42]: 90.1% | viability, T/C [43]: 97.2% | viability, T/C [44]: 83.8% | viability, T/C [45]: 82.5% | viability, T/C [46]: 75.4% | viability, T/C [47]: 78.1% | viability, T/C [48]: 82.7% | viability, T/C [49]: 92.1% | viability, T/C [50]: 90% | viability, T/C [51]: 74.3% | viability, T/C [52]: 76.4% | viability, T/C [53]: 72.1% | viability, T/C [54]: 78.6% | viability, T/C [55]: 87.2% | viability, T/C [56]: 84.1% | viability, T/C [57]: 57% | viability, T/C [58]: 68.9% | viability, T/C [59]: 63.9% | viability, T/C [60]: 5.73% | viability, T/C [61]: 5.87% | viability, T/C [62]: 2.84% | viability, T/C [63]: 1.09% | viability, T/C [64]: 3.05% | viability, T/C [65]: 4.37%
